Reference: patent US20030194719A1, “Tpst-assay for diagnosis of autism and related disorders” (priority 2000, published 2003)

Experiments:
[1] = test system: Tyrosyl protein sulphotransferase (TPST); test: TPST activity assay in platelets from normal healthy blood donors (35S transfer from PAPS35 to EAY substrate); assay type: biochemical, human; settings: for TPST activity (0 μM = 100): Table 7; for TPST activity (0 μM = 100.0): Table 5
Method: The activity of sulphotransferases can be measured by monitoring the transfer of ^35S from the sulphate donor, PAPS^35, to the product, in this case the synthetic tyrosine substrate EAY. This assay uses platelets from control subjects (n=5) and those patients suffering from a particular disorder, selected from autism (n=14), irritable bowel syndrome (n=3) schizophrenia (gluten-sensitive)(n=4), food allergy (gluten, milk) (n=3) and depression (n=2).
Reaction mixtures were incubated for 50 minutes at 37° C. and reactions were stopped by barium acetate. Unreacted sulphate, proteins and nucleotides were precipitated by zinc sulphate and barium hydroxide. Within the reaction there is a positive and negative control. The positive control is termed 100%, and represents the total amount of radioactivity present in the hot PAPS^35 sample. The negative control is the “no-enzyme” reaction, this represents the amount of sulphate transferred to the product when no enzyme is present, i.e. the chemical reaction. The blank for the reaction is made up without PAPS^35 and without enzyme.
10 ml of whole blood was taken from patients and the blood cells removed. The remaining plasma was centrifuged at 8000 g for 5 mins to sediment the platelets. This platelet pellet was resuspended in 5 ml 10 mM phosphate buffered saline (PBS) containing 10 mM EDTA, recentrifuged at 2000 g at 4° C. for 30 min. […] The platelets were sonicated for 12×10 second bursts at 4° C. The platelet sonicates were stored in 1 ml portions at −70° C. prior to use.
Substrate: 10 μl EAY (300 μM; poly (Glu, Ala, Tyr) 6:3:1) was used in each test assay, to give a final concentration in the reaction of 20 μM. This solution was made up in MES reaction buffer.
Reaction mixtures were made up as in the table above. To begin the assay, platelet homogenate (20 μl) and PAPS^35 (20 μl) were added at 30-second intervals to a final volume of 150 μl. The reaction mixture was then incubated at 37° C. for 40 min. The reaction is stopped by the addition of 200 μl-barium acetate (0.1 M) and the tubes were vortexed and placed on ice for […].
Unreacted sulphate was then precipitated by the addition of 0.1 M zinc sulphate (200 μl) and 0.1 M barium hydroxide (200 μl). The tubes were vortexed and centrifuged at 6500 rpm for 3 min.
Repeat step 3. Supernatant (500 μl) was then added to scintillation fluid (3.5 ml) and S^35 was counted in a Phillips scintillation counter.
Various compounds were investigated, including fatty acids, flavonoids and amino acids. […] Compounds were tested at the concentrations shown and were dissolved in buffer where possible or ethanol if not.
In the Example shown in Table 6 and FIG. 6 compounds were all dissolved in DMSO and tested at 25 μM.

[2] = test system: TPST; settings: stomach and liver of ethanol-fed male Sprague-Dawley rats; cited from earlier work
[3] = test system: TPST; settings: human alcoholics; cited from earlier work
[4] = test system: TPST; settings: PC12 cells; cited from earlier work
[5] = Table 6, 25 μM, dissolved in DMSO, human platelets
[6] = Table 2, 100 μM, normal human platelets
[7] = Example 2, concentrations as in Table 2, normal human platelets

O=c1cc(-c2cc(O)c(O)c(O)c2O)oc2cc(O)ccc12 [2′,3′,4′,5′,7 OH Flavone]
% Control TPST Activity [1, 5]: 38%

O=c1c(O)c(-c2ccccc2)oc2ccccc12 [3 OH Flavone]
% Control TPST Activity [1, 5]: 96%
TPST activity (0 μM = 100) ([1]; flavonoid 0.5 μM): 79
TPST activity (0 μM = 100) ([1]; flavonoid 1 μM): 92.6
TPST activity (0 μM = 100) ([1]; flavonoid 2.5 μM): 90.7
TPST activity (0 μM = 100) ([1]; flavonoid 5 μM): 83
TPST activity (0 μM = 100) ([1]; flavonoid 10 μM): 97.9
TPST activity (0 μM = 100) ([1]; flavonoid 25 μM): 101.1
TPST activity (0 μM = 100) ([1]; flavonoid 50 μM): 95.5
TPST activity (0 μM = 100) ([1]; flavonoid 100 μM): 94.4

O=c1cc(-c2ccc(O)c(O)c2)oc2ccccc12 [3′,4′ OH Flavone]
% Control TPST Activity [1, 5]: 55%

O=c1c(-c2ccc(O)c(O)c2)coc2cc(O)ccc12 [3′,4′,7 OH Isoflavone]
% Control TPST Activity [1, 5]: 17%

O=c1cc(-c2cc(O)cc(O)c2)oc2cc(O)ccc12 [3′,5′,7 OH Flavone]
% Control TPST Activity [1, 5]: 32%

O=c1cc(-c2ccccc2)oc2cccc(O)c12 [5 OH Flavone]
% Control TPST Activity [1, 5]: 152%

O=c1cc(-c2ccccc2)oc2cc(O)c(O)c(O)c12 [5′,6′,7′ OH Flavone]
% Control TPST Activity [1, 5]: 1%

Oc1cc(O)c2c(c1)O[C@H](c1ccc(O)c(O)c1)[C@@H](O)C2 [(+)-Catechin]
% Control TPST Activity [1, 5]: 74%

O=c1cc(-c2ccc(O)cc2)oc2cc(O)cc(O)c12 [Apigenin]
% Control TPST Activity [1, 5]: 31%

CCCC(=O)O [Butyric Acid]
% Control TPST Activity [1, 6]: 125%
TPST activity (0 μM = 100.0) ([1]; fatty acid 0.5 μM): 137.6
TPST activity (0 μM = 100.0) ([1]; fatty acid 1 μM): 96.8
TPST activity (0 μM = 100.0) ([1]; fatty acid 2.5 μM): 114.3
TPST activity (0 μM = 100.0) ([1]; fatty acid 5 μM): 94.6
TPST activity (0 μM = 100.0) ([1]; fatty acid 10 μM): 99.2
TPST activity (0 μM = 100.0) ([1]; fatty acid 25 μM): 76.1
TPST activity (0 μM = 100.0) ([1]; fatty acid 50 μM): 86.4
TPST activity (0 μM = 100.0) ([1]; fatty acid 100 μM): 62.2

O=C(O)CC(O)(CC(=O)O)C(=O)O [Citrate]
Effect on TPST activity (in words) [1, 7]: increasing activity
% Control TPST Activity [1, 6]: 113%

CC/C=C\C/C=C\C/C=C\C/C=C\C/C=C\C/C=C\CCC(=O)O [DHA, docosahexanoic acid]
TPST activity (0 μM = 100.0) ([1]; fatty acid 0.5 μM): 91.8
TPST activity (0 μM = 100.0) ([1]; fatty acid 1 μM): 105.2
TPST activity (0 μM = 100.0) ([1]; fatty acid 2.5 μM): 115.9
TPST activity (0 μM = 100.0) ([1]; fatty acid 5 μM): 109.6
TPST activity (0 μM = 100.0) ([1]; fatty acid 10 μM): 97.0
TPST activity (0 μM = 100.0) ([1]; fatty acid 25 μM): 117.8
TPST activity (0 μM = 100.0) ([1]; fatty acid 50 μM): 119.4
TPST activity (0 μM = 100.0) ([1]; fatty acid 100 μM): 103.3

O=c1c(-c2ccc(O)cc2)coc2cc(O)ccc12 [Daidzein]
Effect on TPST activity (in words) ([1]; Example 3, 25 μM, platelets): stimulation of TPST activity
% Control TPST Activity [1, 5]: 279%
TPST activity (0 μM = 100) ([1]; flavonoid 2.5 μM): 100.2
TPST activity (0 μM = 100) ([1]; flavonoid 5 μM): 107.5
TPST activity (0 μM = 100) ([1]; flavonoid 10 μM): 181.1
TPST activity (0 μM = 100) ([1]; flavonoid 25 μM): 343.2
TPST activity (0 μM = 100) ([1]; flavonoid 50 μM): 303.1

CCO [Ethanol]
Effect on TPST activity (in words) [1, 7]: stimulation of activity
% Control TPST Activity ([1]; Table 2, 0.4%, normal human platelets): 177%
Increase of TPST level [2]: over three-fold
TPST enzyme activity versus normal individuals [3]: two- to three-fold higher

O=c1cc(-c2ccccc2)oc2ccccc12 [Flavone]
Effect on TPST activity (in words) ([1]; Example 3, 25 μM, platelets): stimulation of TPST activity
% Control TPST Activity [1, 5]: 180%
TPST activity (0 μM = 100) ([1]; flavonoid 0.5 μM): 80.3
TPST activity (0 μM = 100) ([1]; flavonoid 1 μM): 96.4
TPST activity (0 μM = 100) ([1]; flavonoid 2.5 μM): 93.5
TPST activity (0 μM = 100) ([1]; flavonoid 5 μM): 102.3
TPST activity (0 μM = 100) ([1]; flavonoid 10 μM): 126
TPST activity (0 μM = 100) ([1]; flavonoid 25 μM): 172.8
TPST activity (0 μM = 100) ([1]; flavonoid 50 μM): 230.2
TPST activity (0 μM = 100) ([1]; flavonoid 100 μM): 307.3

CCCCC/C=C\C/C=C\C/C=C\CCCCC(=O)O [GLA, gamma linolenic acid]
TPST activity (0 μM = 100.0) ([1]; fatty acid 10 μM): 78.8
TPST activity (0 μM = 100.0) ([1]; fatty acid 25 μM): 72.6
TPST activity (0 μM = 100.0) ([1]; fatty acid 50 μM): 71.3
TPST activity (0 μM = 100.0) ([1]; fatty acid 100 μM): 61.2

O=c1c(-c2ccc(O)cc2)coc2cc(O)cc(O)c12 [Genistein]
Effect on TPST activity (in words) ([1]; Example 2, 100 μM): inhibitory effect on TPST activity
Effect on TPST activity (in words) ([1]; Example 3, 25 μM, platelets): stimulation of TPST activity
Effect on TPST activity (in words) ([1]; Example 3, 25 μM, platelets, listed as genistein): TPST enhancing effect
% Control TPST Activity [1, 6]: 74%
% Control TPST Activity [1, 5]: 117%
TPST activity (0 μM = 100) ([1]; flavonoid 2.5 μM): 86.5
TPST activity (0 μM = 100) ([1]; flavonoid 5 μM): 83.4
TPST activity (0 μM = 100) ([1]; flavonoid 10 μM): 75.8
TPST activity (0 μM = 100) ([1]; flavonoid 25 μM): 50.9
TPST activity (0 μM = 100) ([1]; flavonoid 50 μM): 62

N[C@@H](CCC(=O)O)C(=O)O [Glutamate]
Effect on TPST activity (in words) [1, 7]: decreased activity
% Control TPST Activity [1, 6]: 67%

NC(=O)CC[C@H](N)C(=O)O [Glutamine]
Effect on TPST activity (in words) [1, 7]: increased activity
% Control TPST Activity [1, 6]: 125%

O=c1c(O)c(-c2ccc(O)cc2)oc2cc(O)cc(O)c12 [Kaempferol]
TPST activity (0 μM = 100) ([1]; flavonoid 0.5 μM): 45.2
TPST activity (0 μM = 100) ([1]; flavonoid 1 μM): 39.9
TPST activity (0 μM = 100) ([1]; flavonoid 2.5 μM): 22.3
TPST activity (0 μM = 100) ([1]; flavonoid 5 μM): 21.4
TPST activity (0 μM = 100) ([1]; flavonoid 10 μM): 14.4
TPST activity (0 μM = 100) ([1]; flavonoid 25 μM): 11
TPST activity (0 μM = 100) ([1]; flavonoid 50 μM): 7.3
TPST activity (0 μM = 100) ([1]; flavonoid 100 μM): 2.9

CCCCC/C=C\C/C=C\CCCCCCCC(=O)O [Linoleic Acid]
% Control TPST Activity [1, 6]: 113%

[Mn+2] [Manganese]
Effect on TPST activity [4]: suppresses TPST activity

CCCCCCCC/C=C\CCCCCCCC(=O)O [Oleic Acid]
Effect on TPST activity (in words) [1, 7]: slight stimulation of TPST activity
% Control TPST Activity [1, 6]: 111%
TPST activity (0 μM = 100.0) ([1]; fatty acid 0.5 μM): 74.5
TPST activity (0 μM = 100.0) ([1]; fatty acid 1 μM): 61.5
TPST activity (0 μM = 100.0) ([1]; fatty acid 2.5 μM): 69.2
TPST activity (0 μM = 100.0) ([1]; fatty acid 5 μM): 51.4
TPST activity (0 μM = 100.0) ([1]; fatty acid 10 μM): 60.5
TPST activity (0 μM = 100.0) ([1]; fatty acid 25 μM): 56.2
TPST activity (0 μM = 100.0) ([1]; fatty acid 50 μM): 54.3
TPST activity (0 μM = 100.0) ([1]; fatty acid 100 μM): 29.5

CCCCC[C@H](O)/C=C/[C@H]1[C@H](O)CC(=O)[C@@H]1C/C=C\CCCC(=O)O [PGE2, prostaglandin E2]
Effect on TPST activity (in words) [1, 7]: stimulation of activity
% Control TPST Activity [1, 6]: 124%

CCCCCC/C=C\CCCCCCCC(=O)O [Palmitoleic]
TPST activity (0 μM = 100.0) ([1]; fatty acid 10 μM): 99.5
TPST activity (0 μM = 100.0) ([1]; fatty acid 25 μM): 95.2
TPST activity (0 μM = 100.0) ([1]; fatty acid 50 μM): 93.5
TPST activity (0 μM = 100.0) ([1]; fatty acid 100 μM): 81.4

N[C@@H](Cc1ccccc1)C(=O)O [Phenylalanine]
Effect on TPST activity (in words) [1, 7]: decreased TPST activity in a dose dependent fashion
% Control TPST Activity ([1]; Table 2, 50 μM, normal human platelets): 79%
% Control TPST Activity ([1]; Table 2, 1000 μM, normal human platelets): 40%

O=c1c(O)c(-c2ccc(O)c(O)c2)oc2cc(O)cc(O)c12 [Quercetin]
% Control TPST Activity [1, 6]: 3%
% Control TPST Activity [1, 5]: 48%
TPST activity (0 μM = 100) ([1]; flavonoid 0.5 μM): 45.8
TPST activity (0 μM = 100) ([1]; flavonoid 1 μM): 33.7
TPST activity (0 μM = 100) ([1]; flavonoid 2.5 μM): 25.7
TPST activity (0 μM = 100) ([1]; flavonoid 5 μM): 21.1
TPST activity (0 μM = 100) ([1]; flavonoid 10 μM): 9.5
TPST activity (0 μM = 100) ([1]; flavonoid 25 μM): 5
TPST activity (0 μM = 100) ([1]; flavonoid 50 μM): 0.9
TPST activity (0 μM = 100) ([1]; flavonoid 100 μM): 0

O=C(O)CCC(=O)O [Succinate]
Effect on TPST activity (in words) [1, 7]: decreasing sulphation
% Control TPST Activity [1, 6]: 59%
